From patent US6642392B1 (priority 1997, dated 2003)

Legend:
Assay type in all cases: in vivo
[1] = tested on: Eiysiphe graminis f. sp. tritici; assay: Test A: wheat powdery mildew, preventive spray on wheat seedlings; settings: for Test A disease control rating: wheat powdery mildew, 100 = 100% disease control, 0 = no control relative to controls, unmarked entries (standard test concentration); for Test A disease control rating (100 = 100% disease control, 0 = no disease control): wheat seedlings sprayed to run-off, inoculated the following day, rating relative to controls, unmarked compounds (standard test rate)
Summary of the method: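 Preventive test: seedlings inoculated with powdery mildew spores one day after run-off spraying of a suspension. Ratings after 7 days in a 20° C growth chamber express percent disease control versus controls.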

Botrytis cinerea = assay: Test E: gray mold, preventive spray on cucumber seedlings; settings: for Test E disease control rating: gray mold on cucumber, 100 = 100% disease control, 0 = no control, unmarked entries (standard test concentration); for Test E disease control rating (100 = 100% disease control, 0 = no disease control): cucumber seedlings sprayed to run-off, inoculated the following day, rating relative to controls, unmarked compounds (standard test rate)
Summary of the method: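 Preventive spray on cucumber seedlings used a suspension (3% acetone, 250 ppm Trem 014), applied to run-off one day before inoculation with Botrytis cinerea spores. Plants were held 48 h at 20° C in saturated air, then 5 days at 20° C. Percent disease control was scored relative to untreated plants.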

Puccinia recondita = assay: Test B: wheat leaf rust, preventive spray on wheat seedlings; settings: for Test B disease control rating: wheat leaf rust, 100 = 100% disease control, 0 = no control, unmarked entries (standard test concentration); for Test B disease control rating (100 = 100% disease control, 0 = no disease control): wheat seedlings sprayed to run-off, inoculated the following day, rating relative to controls, unmarked compounds (standard test rate)
Summary of the method: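 Preventive test: P. recondita spores were applied one day after a run-off spray of compound suspension on wheat seedlings. Plants had 24 h at 20 °C in saturated air plus 6 days in a 20 °C growth chamber. Scoring is % disease control (100 = full) relative to controls.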

Pyricularia oryzae = settings: for Test C disease control rating: rice blast, 100 = 100% disease control, 0 = no control, unmarked entries (standard test concentration); for Test C disease control rating (100 = 100% disease control, 0 = no disease control): rice seedlings sprayed to run-off, inoculated the following day, rating relative to controls, unmarked compounds (standard test rate)
Phytophthora infestans = settings: for Test D disease control rating: tomato late blight, 100 = 100% disease control, 0 = no control, unmarked entries (standard test concentration); for Test D disease control rating (100 = 100% disease control, 0 = no disease control): tomato seedlings sprayed to run-off, inoculated the following day, rating relative to controls, unmarked compounds (standard test rate)

| SMILES | Test A disease control rating [1] [%] | Test E disease control rating (Botrytis cinerea) [%] | Test B disease control rating (Puccinia recondita) [%] | Test C disease control rating (Pyricularia oryzae) [%] | Test D disease control rating (Phytophthora infestans) [%] | Test A disease control rating (100 = 100% disease control, 0 = no disease control) [1] [%] | Test E disease control rating (100 = 100% disease control, 0 = no disease control) (Botrytis cinerea) [%] | Test B disease control rating (100 = 100% disease control, 0 = no disease control) (Puccinia recondita) [%] | Test C disease control rating (100 = 100% disease control, 0 = no disease control) (Pyricularia oryzae) [%] | Test D disease control rating (100 = 100% disease control, 0 = no disease control) (Phytophthora infestans) [%] |
| --- | --- | --- | --- | --- | --- | --- | --- | --- | --- | --- |
| CC(COc1c(F)ccc(F)c1F)NC(=O)C(C#N)C(C)(C)C (mixture of isomers) [compound 186] | 0 | 45 | 0 | 100 | 0 |  |  |  |  |  |
| C#CC(C)(C)C(C#N)C(=O)NC(C)COc1cc(F)ccc1Cl (mixture of isomers) [compound 193] | 0 | 55 | 0 | 100 | 0 |  |  |  |  |  |
| CC(COc1cc(F)ccc1Cl)NC(=O)C(C#N)C(C)C(C)(C)C (mixture of isomers) [compound 194] | 0 | 0 | 0 | 100 | 0 |  |  |  |  |  |
| CC(COc1ccccc1OC(F)(F)C(F)F)NC(=O)C(C#N)C(C)(C)C (mixture of isomers) [compound 201] | 90 | 0 | 0 | 53 | 46 |  |  |  |  |  |
| CC(COc1ccccc1SC(F)(F)C(F)F)NC(=O)C(C#N)C(C)(C)C (mixture of isomers) [compound 202] | 0 | 0 | 0 | 53 | 0 |  |  |  |  |  |
| CC(COc1c(F)cccc1C#N)NC(=O)C(C#N)C(C)(C)C (mixture of isomers) [compound 203] | 0 | 0 | 28 | 91 | 0 |  |  |  |  |  |
| C=CCc1cccc(C#N)c1OCC(C)NC(=O)C(C#N)C(C)(C)C (mixture of isomers) [compound 204] | 0 | 0 | 0 | 74 | 0 |  |  |  |  |  |
| CCCc1cccc(C#N)c1OCC(C)NC(=O)C(C#N)C(C)(C)C (mixture of isomers) [compound 205] | 0 | 0 | 68 | 74 | 0 |  |  |  |  |  |
| CC(COc1c(C#N)cccc1C(F)F)NC(=O)C(C#N)C(C)(C)C (mixture of isomers) [compound 206] | 0 | 0 | 0 | 74 | 0 |  |  |  |  |  |
| CC(COc1cc(F)c(F)cc1C#N)NC(=O)C(C#N)C(C)(C)C (mixture of isomers) [compound 207] | 0 | 0 | 0 | 0 | 0 |  |  |  |  |  |
| CC(COc1c(F)ccc(F)c1C#N)NC(=O)C(C#N)C(C)(C)C (mixture of isomers) [compound 208] | 0 | 0 | 28 | 94 | 45 |  |  |  |  |  |
| Cc1cccc(C#N)c1OCC(C)NC(=O)C(C#N)C(C)(C)C (mixture of isomers) [compound 209] | 0 | 0 | 0 | 86 | 0 |  |  |  |  |  |
| CC(COc1c(Cl)cccc1C#N)NC(=O)C(C#N)C(C)(C)C (mixture of isomers) [compound 210] | 0 | 0 | 0 | 91 | 0 |  |  |  |  |  |
| C#CC(C)(C)C(C#N)C(=O)NC(C)COc1cc(F)ccc1F (mixture of isomers) [compound 211] | 63 | 0 | 0 | 100 | 76 |  |  |  |  |  |
| C#CC(C)(C)C(C#N)C(=O)NC(C)COc1cc(Cl)ccc1Cl (mixture of isomers) [compound 212] | 0 | 0 | 0 | 100 | 23 |  |  |  |  |  |
| C#CC(C)(C)C(C#N)C(=O)NC(C)COc1cc(C)ccc1Cl (mixture of isomers) [compound 213] | 63 | 0 | 0 | 99 | 62 |  |  |  |  |  |
| C=CC(C)(C)C(C#N)C(=O)NC(C)COc1cc(F)ccc1F (mixture of isomers) [compound 214] | 0 | 0 | 0 | 100 | 23 |  |  |  |  |  |
| C#Cc1ccccc1OCC(C)NC(=O)C(C#N)C(C)(C)C (mixture of isomers) [compound 216] |  |  |  |  |  | 0 | 45 | 0 | 99 | 9 |
| C=C(F)C(C)(C)C(C#N)C(=O)NC(C)COc1cc(F)ccc1F (mixture of isomers) [compound 217] |  |  |  |  |  | 0 | 0 | 0 | 99 | 0 |
| C=CC(C)(CF)C(C#N)C(=O)NC(C)COc1cc(F)ccc1F (mixture of isomers) [compound 218] |  |  |  |  |  | 86 | 0 | 68 | 100 | 17 |
| C=CC(C)(CF)C(C#N)C(=O)NC(C)COc1cc(Cl)ccc1Cl (mixture of isomers) [compound 219] |  |  |  |  |  | 86 | 0 | 86 | 99 | 96 |
| C=CC(C)(CF)C(C#N)C(=O)NC(C)COc1cc(F)ccc1Cl (mixture of isomers) [compound 220] |  |  |  |  |  | 0 | 0 | 0 | 100 | 85 |
